Experimental data published in the NIST ThermoML archive (doi:10.1021/je100581m).

Experiment: xn = mol fraction of the nth substance listed
Conditions: Liquid, Vibrating tube method

C=CC(C)(O)CCC=C(C)C (stereo not given) [3,7-dimethyl-1,6-octadien-3-ol] + CC(C)O
mass density [kg/m3]
Conditions | x2 = 0 | x2 = 0.1031 | x2 = 0.2049 | x2 = 0.3054 | x2 = 0.4056 | x2 = 0.5022 | x2 = 0.605 | x2 = 0.7008 | x2 = 0.7981 | x2 = 0.9092
283.15 K, 100 kPa | 869.5 | 866.3 | 862.7 | – | 854.1 | 848.8 | 842.3 | 834.6 | – | 809.3
283.15 K, 5000 kPa | 872.6 | 869.5 | – | 861.9 | 857.4 | 852.2 | 845.7 | – | 828.2 | 813.1
283.15 K, 10000 kPa | 875.7 | – | 869 | 864.9 | 860.5 | 855.3 | – | 841.4 | 831.6 | 816.6
283.15 K, 15000 kPa | – | 875.5 | 872.1 | 868.1 | 863.7 | – | 852.2 | 844.9 | 835.1 | 820.4
283.15 K, 20000 kPa | 881.5 | 878.5 | 875 | 870.9 | – | 861.6 | 855.3 | 848 | 838.4 | –
283.18 K, 100 kPa | – | – | – | 858.7 | – | – | – | – | 824.5 | –
283.18 K, 5000 kPa | – | – | 865.9 | – | – | – | – | 838.1 | – | –
283.18 K, 10000 kPa | – | 872.5 | – | – | – | – | 848.9 | – | – | –
283.18 K, 15000 kPa | 878.7 | – | – | – | – | 858.6 | – | – | – | –
283.18 K, 20000 kPa | – | – | – | – | 866.7 | – | – | – | – | 823.7
298.15 K, 100 kPa | 857.3 | 854.1 | 850.5 | 846.3 | 841.7 | 836.4 | 829.7 | 821.9 | 812 | 796.8
298.15 K, 5000 kPa | 860.6 | 857.4 | 853.9 | 849.8 | 845.2 | 839.9 | 833.3 | 825.6 | 815.9 | 800.9
298.15 K, 10000 kPa | 863.9 | 860.8 | 857.3 | 853.2 | 848.7 | 843.5 | 837 | 829.4 | 819.7 | 804.9
298.15 K, 15000 kPa | 867 | 864 | 860.5 | 856.5 | 852 | 846.9 | 840.4 | 832.9 | 823.4 | 808.8
298.15 K, 20000 kPa | 870 | 867 | 863.6 | 859.6 | 855.2 | 850.1 | 843.7 | 836.4 | 826.9 | 812.4
313.15 K, 100 kPa | 844.5 | 841.4 | 837.7 | 833.4 | 828.7 | 823.2 | 816.4 | 808.5 | 798.6 | 783.6
313.15 K, 5000 kPa | 848.2 | 845.1 | 841.5 | 837.3 | 832.6 | 827.2 | 820.6 | 812.8 | 803 | 788.2
313.15 K, 10000 kPa | 851.6 | 848.6 | 845.1 | 840.9 | 836.3 | 831 | 824.4 | 816.8 | 807.1 | 792.5
313.15 K, 15000 kPa | 855 | 852.1 | 848.6 | 844.5 | 840 | 834.8 | 828.2 | 820.6 | 811.1 | 796.7
313.15 K, 20000 kPa | 858.4 | 855.4 | 852 | 847.9 | 843.5 | 838.3 | 831.8 | 824.4 | 814.9 | 800.7
328.15 K, 100 kPa | 831.7 | 828.5 | – | 820.4 | 815.5 | 809.9 | 802.8 | – | 784.8 | 769.8
328.15 K, 5000 kPa | 835.6 | – | 828.8 | 824.5 | 819.7 | 814.2 | – | 799.4 | 789.5 | 774.8
328.15 K, 10000 kPa | – | 836.4 | 832.8 | 828.6 | 823.9 | – | 811.6 | 803.9 | 794.2 | 779.7
328.15 K, 15000 kPa | 843.1 | 840.1 | 836.5 | 832.3 | – | 822.3 | 815.6 | 808 | 798.4 | –
328.15 K, 20000 kPa | 846.7 | 843.6 | 840.2 | – | 831.5 | 826.1 | 819.5 | 812 | – | 788.4
328.18 K, 100 kPa | – | – | 824.8 | – | – | – | – | 794.9 | – | –
328.18 K, 5000 kPa | – | 832.5 | – | – | – | – | 807.2 | – | – | –
328.18 K, 10000 kPa | 839.5 | – | – | – | – | 818.4 | – | – | – | –
328.18 K, 15000 kPa | – | – | – | – | 827.8 | – | – | – | – | 784.1
328.18 K, 20000 kPa | – | – | – | 836 | – | – | – | – | 802.6 | –

C=CC(C)(O)CCC=C(C)C (stereo not given) [3,7-dimethyl-1,6-octadien-3-ol] + CCO
mass density [kg/m3]
Conditions | x2 = 0 | x2 = 0.1129 | x2 = 0.1935 | x2 = 0.3045 | x2 = 0.4023 | x2 = 0.5121 | x2 = 0.6055 | x2 = 0.7008 | x2 = 0.8009 | x2 = 0.9009
283.15 K, 100 kPa | 869.2 | 866.8 | 865.6 | 862.7 | 859.9 | 855.3 | 850.3 | 843.1 | 832.7 | 818.2
283.15 K, 5000 kPa | 872.3 | 869.9 | 868.7 | 866 | 863.1 | 858.5 | 853.5 | 846.5 | 836.3 | 822
283.15 K, 10000 kPa | 875.2 | 872.9 | 871.7 | 869 | 866.1 | 861.6 | 856.8 | 849.7 | 839.6 | 825.5
283.15 K, 15000 kPa | 878.2 | 875.9 | 874.8 | 872.1 | 869.2 | 864.8 | 860.1 | 853 | 843.1 | 829.2
283.15 K, 20000 kPa | 881 | 878.8 | 877.6 | 874.9 | 872.1 | 867.7 | 862.9 | 856.1 | 846.3 | 832.5
298.15 K, 100 kPa | 856.9 | 854.5 | 853.4 | 850.5 | 847.6 | 843 | 838 | 830.9 | 820.6 | 805.9
298.15 K, 5000 kPa | 860.1 | 857.8 | 856.7 | 853.9 | 851 | 846.5 | 841.4 | 834.6 | 824.4 | 809.9
298.15 K, 10000 kPa | 863.5 | 861.1 | 860 | 857.2 | 854.4 | 850 | 845.1 | 838.2 | 828.1 | 813.9
298.15 K, 15000 kPa | 866.6 | 864.3 | 863.2 | 860.5 | 857.7 | 853.2 | 848.4 | 841.6 | 831.7 | 817.7
298.15 K, 20000 kPa | 869.6 | 867.4 | 866.3 | 863.6 | 860.8 | 856.4 | 851.7 | 844.9 | 835.1 | 821.3
313.15 K, 100 kPa | 844.1 | 841.7 | 840.6 | 837.8 | 834.7 | 830.2 | 825.3 | 818 | 807.9 | 793.2
313.15 K, 5000 kPa | 847.8 | 845.4 | 844.4 | 841.6 | 838.6 | 834.1 | 829.3 | 822.3 | 812.1 | 797.7
313.15 K, 10000 kPa | 851.3 | 849 | 847.9 | 845.2 | 842.3 | 837.8 | 833.1 | 826.1 | 816.1 | 801.9
313.15 K, 15000 kPa | 854.8 | 852.5 | 851.4 | 848.7 | 845.8 | 841.4 | 836.7 | 829.8 | 820 | 806
313.15 K, 20000 kPa | 858.1 | 855.8 | 854.8 | 852.1 | 849.2 | 844.9 | 840.2 | 833.4 | 823.7 | 809.8
328.15 K, 100 kPa | 831.3 | 828.9 | 827.8 | 824.9 | 821.8 | 817.3 | 812.3 | 805.2 | 794.9 | 780.2
328.15 K, 5000 kPa | 835.2 | 832.9 | 831.8 | 828.9 | 825.9 | 821.4 | 816.6 | 809.5 | 799.4 | 784.9
328.15 K, 10000 kPa | 839.1 | 836.9 | 835.8 | 832.9 | 829.9 | 825.5 | 820.6 | 813.9 | 803.9 | 789.6
328.15 K, 15000 kPa | 842.7 | 840.5 | 839.4 | 836.6 | 833.7 | 829.3 | 824.5 | 817.8 | 808 | 793.9
328.15 K, 20000 kPa | 846.3 | 844.1 | 843 | 840.3 | 837.3 | 833 | 828.4 | 821.6 | 811.9 | 798.1
